Assay results from publication PMC5660230, “Combined x-ray crystallography and computational modeling approach to investigate the Hsp90 C-terminal peptide binding to FKBP51” (Scientific Reports, 2017).
Entries after “also recorded” stand apart in the source; their conditions may differ. Residues, ends and D or L forms follow the SMILES beside them.

Assays:
FKBP51 = test: Differential scanning fluorimetry (DSF), melting temperature shift of FKBP51; format: binding, human; conditions: FKBP51 0.1 mg/ml, 5X SYPRO orange, 0.5X PBS
Experimental: (§1) Differential scanning fluorimetry was performed using Bio-Rad CFX96 qPCR following a well-established protocol. Briefly, 25 µl of solution containing purified FKBP51 at a concentration of 0.1 mg/ml, 5X SYPRO orange (Life Technologies), and Hsp90 C-terminal peptide ranging from 0–500 µM in 0.5X PBS was transferred to a 96-well PCR plate in triplicate. The plate was centrifuged, sealed and the fluorescence was measured using the FRET channel between 20 and 80 °C with an increment of 0.2 °C in each cycle. The melting temperature was determined from the first derivative peaks of the melting curve using Bio-Rad CFX96 manager software. Further, the dissociation constant of the complex between FKBP51 and C90 was determined by fitting the resulting data using single site ligand binding model[35] with the bottom (T1) and top (T2) temperatures fitting to 43.8 and 48.5 °C, respectively. The concentration of FKBP51 (2 µM) was used as the value of the constant P. The fitting was performed using GraphPad Prism, version 7.02. Additionally, we incubated the FKBP51 with 200 µM of control peptide (DDDDDDDDDD) in a similar way.

FKBP51 (TPR domain) = target: T1, FKBP51 (TPR domain) (Homo sapiens, UniProt Q13451); test: Differential scanning fluorimetry (DSF), dissociation constant of FKBP51-C90 complex under thermal denaturation; format: binding
T1 construct: FKBP51 full length DNA (IMAGE cDNA clone: 5753397 5′) was PCR amplified; GST (N, cleaved yes); made in house; host or cells: E. coli BL21
T1 sequence (Q13451 1-457): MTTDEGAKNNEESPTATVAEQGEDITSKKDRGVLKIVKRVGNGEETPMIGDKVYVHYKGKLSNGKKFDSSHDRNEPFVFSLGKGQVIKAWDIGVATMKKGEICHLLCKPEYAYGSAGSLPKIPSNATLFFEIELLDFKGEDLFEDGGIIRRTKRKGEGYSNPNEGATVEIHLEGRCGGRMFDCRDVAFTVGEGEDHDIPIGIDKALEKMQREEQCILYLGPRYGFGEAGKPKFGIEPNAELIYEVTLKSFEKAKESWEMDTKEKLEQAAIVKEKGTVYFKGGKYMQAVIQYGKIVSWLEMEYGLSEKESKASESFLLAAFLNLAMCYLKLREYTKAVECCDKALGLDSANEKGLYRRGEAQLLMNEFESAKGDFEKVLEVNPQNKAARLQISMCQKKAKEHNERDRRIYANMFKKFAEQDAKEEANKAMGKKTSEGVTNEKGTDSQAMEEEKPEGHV
Experimental: as §1

Row | Molecule | change in melting point of FKBP51 (control peptide) (FKBP51; control peptide 200 µM vs 0 µM) | Kd (FKBP51 (TPR domain); DSF under thermal denaturation, full-length FKBP51 0.1 mg/ml (2 µM), 5X SYPRO orange, 0.5X PBS, C90 0–250 µM / 0–500 µM (method), triplicate, 20–80 °C, 0.2 °C increments, Tm by first derivative, single site ligand binding model, T1 43.8 and T2 48.5 °C, R^2 0.99) [µM] | dissociation constant compared with reported FKBP38-MEEVD peptide (FKBP51 (TPR domain); DSF value of FKBP51-C90 complex compared with literature value of FKBP38-MEEVD peptide) | ΔTm (first melting point) (FKBP51; C90 250 µM vs 0 µM, triplicate, first derivative of melting curve) [°C] | first melting point of FKBP51 in presence of peptide (FKBP51; C90 250 µM, triplicate, without peptide 44 °C / 43.8 °C) [°C] | second melting point of FKBP51 in presence of peptide (FKBP51; C90 250 µM, triplicate, without peptide 58.6 °C / 57.8 °C)
1 | H-DDDDDDDDDD-OH [control peptide, reference compound] | did not lead to any change in the melting point of FKBP51 | – | – | – | – | –
2 | CSCC[C@H](NC(=O)[C@H](CCCNC(=N)N)NC(=O)[C@H](CO)NC(=O)[C@@H](NC(=O)[C@H](CC(=O)O)NC(=O)[C@H](Cc1c[nH]cn1)NC(=O)[C@H](Cc1c[nH]cn1)NC(=O)[C@H](Cc1c[nH]cn1)NC(=O)[C@H](Cc1c[nH]cn1)NC(=O)[C@H](Cc1c[nH]cn1)NC(=O)[C@@H](N)Cc1c[nH]cn1)[C@@H](C)O)C(=O)N[C@@H](CCC(=O)O)C(=O)N[C@@H](CCC(=O)O)C(=O)N[C@H](C(=O)N[C@@H](CC(=O)O)C(=O)O)C(C)C [C90] (H-HHHHHHDTSRMEEVD-OH) | – | 70 ± 32 | very similar to the reported dissociation constant of FKBP38-MEEVD peptide | 4.8 | 48.6 | without much change in the second melting point; also recorded: without affecting the second melting point
